Reference: US20250002486A1, “CYCLIC SULFONAMIDE RIBONUCLEOTIDE REDUCTASE (RNR) INHIBITORS AND USES THEREOF” (Boundless Bio, Inc., priority 2021, published 2025)
pIC50: −log10 of the molar value.

Legend:
[1] = test system: pCHK1 (S345) in Colo320 DM cells; assay: Alphalisa assay: pCHK1 (S345) detection in Colo320 DM cells; assay type: cell-based, human; settings: compound incubation overnight (approximately 16 hours), pCHK1 (S345) AlphaLisa Sure Fire kit
Method: Colo320 DM cells (ATCC #CCL-220, derived from human colorectal adenocarcinoma, Dukes' type C) were seeded on a 96-well, cell culture treated assay plate at a density of 50,000 cells/well in 200 μL of RPMI-1640 media supplemented with 10% Fetal Bovine Serum and incubated at 37 degrees Celsius overnight. The following day, test compound dilutions were added directly to the plated cells by a Tecan digital dispenser to a final DMSO concentration of <0.5%. and incubated at 37 degrees Celsius overnight (approximately 16 hours). The following day all cull culture media was removed from the cells. 75 μL of 1× AlphaLisa lysis buffer was added to each well and plates were agitated on a shaker for 30 minutes at room temperature. The lysis of cells and detection of pCHK1 (S345) were performed with regents contained within the AlphaLisa Sure Fire assay kit (Perkin Elmer #ALSU-PCHK1-A) according to the manufacturer's instructions. 10 μL of each lysate was then transferred to a white, 384-well assay plate (Perkin Elmer #6008280). 5 μL of Acceptor mix was then added to each well of lysate in the white, 384-well assay plate and incubated in the dark at room temperature for 60 minutes. 5 μL of Donor mix was then added to each well of the white, 384-well assay plate in subdued light and incubated at room temperature for 60 minutes. Plates were read on an Alpha Technology-compatible plate reader using standard AlphaLisa settings.

RNR (RNR1:RNR2 1:1) = RNR (RNR1:RNR2 1:1) (Homo sapiens (Human), UniProt P23921); assay: RNR enzyme activity, rapid-fire mass spectrometry (RF/MS) assay; assay type: biochemical; settings: RNR 50 nM, 1:1 RNR1:RNR2; CDP 5 μM, ATP 1 mM; 37° C., 45 min; compounds screened up to 50 μM
Chain of RNR (RNR1:RNR2 1:1) (P23921 whole entry): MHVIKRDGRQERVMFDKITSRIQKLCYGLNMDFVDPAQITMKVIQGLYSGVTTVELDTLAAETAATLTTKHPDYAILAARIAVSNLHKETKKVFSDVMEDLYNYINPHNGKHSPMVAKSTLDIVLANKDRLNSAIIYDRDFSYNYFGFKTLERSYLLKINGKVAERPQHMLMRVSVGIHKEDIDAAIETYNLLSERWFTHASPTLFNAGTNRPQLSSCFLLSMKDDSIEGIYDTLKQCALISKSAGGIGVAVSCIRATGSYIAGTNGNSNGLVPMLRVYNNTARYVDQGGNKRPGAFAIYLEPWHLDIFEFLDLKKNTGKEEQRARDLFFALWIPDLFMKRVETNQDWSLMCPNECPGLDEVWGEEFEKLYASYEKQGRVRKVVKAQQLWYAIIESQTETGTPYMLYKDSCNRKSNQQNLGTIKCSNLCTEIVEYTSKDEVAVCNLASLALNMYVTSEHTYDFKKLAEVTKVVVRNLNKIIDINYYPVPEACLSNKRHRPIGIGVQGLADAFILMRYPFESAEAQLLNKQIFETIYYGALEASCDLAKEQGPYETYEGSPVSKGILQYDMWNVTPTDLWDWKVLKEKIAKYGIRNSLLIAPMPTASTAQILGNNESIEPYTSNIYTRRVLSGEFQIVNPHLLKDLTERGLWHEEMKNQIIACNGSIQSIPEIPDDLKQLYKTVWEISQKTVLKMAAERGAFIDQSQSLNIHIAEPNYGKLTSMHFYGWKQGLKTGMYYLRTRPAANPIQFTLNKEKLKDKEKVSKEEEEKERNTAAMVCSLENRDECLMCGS
Method: A rapid-fire mass spectrometry (RF/MS) assay was used to assess RNR enzyme activity using a 384 well plate and a robotic platform.
The plate layout included two validated reference compounds (Triapine (3-AP) and Hydroxyurea (HU)): • A dose response in duplicate; top concentration: 5 μM (3-AP) and 250 μM (HU), semi-log • dilutions. • Spike wells in triplicate randomly spotted at four concentrations: • 250 μM, 100 μM, 30 μM and 2 μM for HU • 5 μM, 2 μM, 0.6 μM and 0.04 μM for 3-AP
First, the multidrop pipes were saturated for 30 minutes with enzymatic solution. Then 30 μL of Stop solution was distributed in column 24. Next, 15 μL of enzyme was distributed in column 1 to 24. Next, a pre-incubation step of 15 minutes at room temperature occurred, followed by distribution of 15 μL of substrate solution (column 1 to 24). Next, the plate was incubated for 45 minutes at 37° C. 30 μL of Stop solution was distributed to columns 1 to 23.
The final parameters for the enzyme reactions were: • Incubation: 37° C., 45 min • [CDP]: 5 μM; [ATP]: 1 mM; [NADPH]: No • [RNR]final: 50 nM with 1:1 (RNR1:RNR2) ratio • Final volume: 30 μL • Stop solution: 6% HCOOH containing 2 μM of 15

Row | SMILES | pIC50 [1] | pIC50 (RNR (RNR1:RNR2 1:1)) | pIC50 ([1]; Homo sapiens, COLO 320DM)
1 | COc1cc(Cl)cc2c1S(=O)(=O)N([C@@H](c1n[nH]c(=O)o1)[C@H](C)c1c(F)ccc(C)c1C)C2=O (stereo in doubt) [Example 4, 5-((1R,2R)-1-(5-chloro-7-methoxy-1,1-dioxido-3-oxobenzo[d]isothiazol-2(3H)-yl)-2-(6-fluoro-2,3-dimethylphenyl)propyl)-1,3,4-oxadiazol-2(3H)-one] |  | 4.00 to 5.00 | < 4.30
2 | COc1cc(Cl)cc2c1S(=O)(=O)N([C@@H](c1n[nH]c(=O)o1)[C@@H](C)c1c(F)ccc(C)c1C)C2=O (stereo in doubt) [Example 15, 5-((1R,2S)-1-(5-chloro-7-methoxy-1,1-dioxido-3-oxobenzo[d]isothiazol-2(3H)-yl)-2-(6-fluoro-2,3-dimethylphenyl)propyl)-1,3,4-oxadiazol-2(3H)-one] |  | 4.00 to 5.00 | < 4.30
3 | COc1cc(Cl)cc2c1S(=O)(=O)N([C@H](c1n[nH]c(=O)o1)[C@@H](C)c1c(F)ccc(C)c1C)C2 [Example 5, 5-((1S,2S)-1-(5-chloro-7-methoxy-1,1-dioxidobenzo [d]isothiazol-2(3H)-yl)-2-(6-fluoro-2,3-dimethylphenyl)propyl)-1,3,4-oxadiazol-2(3H)-one] |  | 4.00 to 5.00 | < 4.30
4 | Cc1ccc(F)c([C@@H](C)[C@@H](c2n[nH]c(=O)o2)N2CCc3cc(Cl)ccc3S2(=O)=O)c1C [Example 7, 5-((1S,2R)-1-(6-chloro-1,1-dioxido-3,4-dihydro-2H-benzo[e][1,2]thiazin-2-yl)-2-(6-fluoro-2,3-dimethylphenyl)propyl)-1,3,4-oxadiazol-2(3H)-one] |  | ≥ 7.00 | ≥ 5.30
5 | Cc1ccc(F)c([C@H](C)[C@H](c2n[nH]c(=O)o2)N2CCc3cc(Cl)ccc3S2(=O)=O)c1C [Example 8, 5-((1R,2S)-1-(6-chloro-1,1-dioxido-3,4-dihydro-2H-benzo[e][1,2]thiazin-2-yl)-2-(6-fluoro-2,3-dimethylphenyl)propyl)-1,3,4-oxadiazol-2(3H)-one] |  | 4.00 to 5.00 | < 4.30
6 | Cc1ccc(F)c([C@@H](C)[C@@H](c2n[nH]c(=O)o2)N2CCCc3cc(Cl)ccc3S2(=O)=O)c1C [Example 9, 5-((1S,2R)-1-(7-chloro-1,1-dioxido-4,5-dihydrobenzo [f][1,2]thiazepin-2(3H)-yl)-2-(6-fluoro-2,3-dimethylphenyl)propyl)-1,3,4-oxadiazol-2(3H)-one] |  | ≥ 7.00 | ≥ 5.30
7 | Cc1ccc(F)c([C@H](C)[C@@H](c2n[nH]c(=O)o2)N2CCCc3cc(Cl)ccc3S2(=O)=O)c1C [Example 10, 5-((1S,2S)-1-(7-chloro-1,1-dioxido-4,5-dihydrobenzo [f][1,2]thiazepin-2(3H)-yl)-2-(6-fluoro-2,3-dimethylphenyl)propyl)-1,3,4-oxadiazol-2(3H)-one] |  | 4.00 to 5.00 | < 4.30
8 | Cc1ccc(F)c([C@@H](C)[C@@H](c2n[nH]c(=O)o2)N2CCc3ccc(Cl)cc3S2(=O)=O)c1C [Example 11, 5-((1S,2R)-1-(7-chloro-1,1-dioxido-3,4-dihydro-2H-benzo[e][1,2]thiazin-2-yl)-2-(6-fluoro-2,3-dimethylphenyl)propyl)-1,3,4-oxadiazol-2(3H)-one] |  | 6.00 to 7.00 | < 4.30
9 | Cc1ccc(F)c([C@@H](C)[C@@H](c2nn[nH]n2)N2CCc3cc(Cl)ccc3S2(=O)=O)c1C [Example 13, 6-chloro-2-((1S,2R)-2-(6-fluoro-2,3-dimethylphenyl)-1-(2H-tetrazol-5-yl)propyl)-3,4-dihydro-2H-benzo[e][1,2] thiazine 1,1-dioxide] |  | ≥ 7.00 | 5.00 to 5.30
10 | Cc1ccc(F)c(C(C)[C@@H](c2n[nH]c(=O)o2)N2CC(=O)c3cc(Cl)ccc3S2(=O)=O)c1C (stereo partly drawn) [Example 16, 5-((1S)-1-(6-chloro-1,1-dioxido-4-oxo-3,4-dihydro-2H-benzo[e] [1,2]thiazin-2-yl)-2-(6-fluoro-2,3-dimethylphenyl)propyl)-1,3,4-oxadiazol-2(3H)-one] |  | 6.00 to 7.00 | 5.00 to 5.30
11 | Cc1ccc(F)c([C@@H](C)[C@@H](c2n[nH]c(=O)o2)N2CCc3ccccc3S2(=O)=O)c1C [Example 18, 5-((1S,2R)-1-(1,1-dioxido-3,4-dihydro-2H-benzo[e] [1,2]thiazin-2-yl)-2-(6-fluoro-2,3-dimethylphenyl)propyl)-1,3,4-oxadiazol-2(3H)-one] |  | 6.00 to 7.00 | 4.30 to 5.00
12 | Cc1ccc(F)c([C@@H](C)[C@@H](c2n[nH]c(=O)o2)N2CC(O)c3cc(Cl)ccc3S2(=O)=O)c1C (stereo partly drawn) [Example 19, 5-((1S,2R)-1-(6-chloro-4-hydroxy-1,1-dioxido-3,4-dihydro-2H-benzo[e][1,2]thiazin-2-yl)-2-(6-fluoro-2,3-dimethylphenyl)propyl)-1,3,4-oxadiazol-2(3H)-one] |  | 6.00 to 7.00 | 4.30 to 5.00

Now from value to compound:

Row | pIC50 [1] | pIC50 (RNR (RNR1:RNR2 1:1)) | pIC50 ([1]; Homo sapiens, COLO 320DM) | SMILES
13 | < 4.30 | 4.00 to 5.00 |  | COc1cc(Cl)cc2c1S(=O)(=O)N([C@@H](c1n[nH]c(=O)o1)[C@@H](C)c1c(F)ccc(C)c1C)C2=O (stereo in doubt) [Example 3, 5-((1R,2S)-1-(5-chloro-7-methoxy-1,1-dioxido-3-oxobenzo[d]isothiazol-2(3H)-yl)-2-(6-fluoro-2,3-dimethylphenyl)propyl)-1,3,4-oxadiazol-2(3H)-one]
14 |  | 4.00 to 5.00 | < 4.30 | Cc1ccc(F)c([C@@H](C)[C@@H](c2n[nH]c(=O)o2)N2C(=O)c3cc(Cl)ccc3S2(=O)=O)c1C [Example 1, 5-((1S,2R)-1-(5-chloro-1,1-dioxido-3-oxobenzo[d]isothiazol-2(3H)-yl)-2-(6-fluoro-2,3-dimethylphenyl)propyl)-1,3,4-oxadiazol-2(3H)-one]
15 |  | 5.00 to 6.00 | < 4.30 | Cc1ccc(F)c([C@H](C)[C@@H](c2n[nH]c(=O)o2)N2C(=O)c3cc(Cl)ccc3S2(=O)=O)c1C [Example 2, 5-((1S,2S)-1-(5-chloro-1,1-dioxido-3-oxobenzo[d]isothiazol-2(3H)-yl)-2-(6-fluoro-2,3-dimethylphenyl)propyl)-1,3,4-oxadiazol-2(3H)-one]
16 |  | 5.00 to 6.00 | < 4.30 | COc1cc(Cl)cc2c1S(=O)(=O)N([C@H](c1n[nH]c(=O)o1)[C@H](C)c1c(F)ccc(C)c1C)C2 [Example 6, 5-((1S,2R)-1-(5-chloro-7-methoxy-1,1-dioxidobenzo [d]isothiazol-2(3H)-yl)-2-(6-fluoro-2,3-dimethylphenyl)propyl)-1,3,4-oxadiazol-2(3H)-one]
17 |  | 4.00 to 5.00 | < 4.30 | Cc1ccc(F)c([C@H](C)[C@@H](c2n[nH]c(=O)o2)N2CCc3ccc(Cl)cc3S2(=O)=O)c1C [Example 12, 5-((1S,2s)-1-(7-chloro-1,1-dioxido-3,4-dihydro-2H-benzo[e][1,2]thiazin-2-yl)-2-(6-fluoro-2,3-dimethylphenyl)propyl)-1,3,4-oxadiazol-2(3H)-one]
18 |  | 5.00 to 6.00 | < 4.30 | Cc1ccc(F)c([C@@H](C)[C@@H](c2n[nH]c(=O)o2)N2Cc3cc(Cl)ccc3S2(=O)=O)c1C [Example 14, 5-((1S,2R)-1-(5-chloro-1,1-dioxidobenzo [d]isothiazol-2(3H)-yl)-2-(6-fluoro-2,3-dimethylphenyl)propyl)-1,3,4-oxadiazol-2(3H)-one]
19 |  | 4.00 to 5.00 | < 4.30 | Cc1ccc(F)c(C(C)[C@@H](c2n[nH]c(=O)o2)N2C(=O)Cc3cc(Cl)ccc3S2(=O)=O)c1C (stereo partly drawn) [Example 17, 5-((1S)-1-(6-chloro-1,1-dioxido-3-oxo-3,4-dihydro-2H-benzo[e] [1,2]thiazin-2-yl)-2-(6-fluoro-2,3-dimethylphenyl)propyl)-1,3,4-oxadiazol-2(3H)-one]
20 |  | ≥ 7.00 | ≥ 5.30 | Cc1ccc(F)c(C(C)[C@@H](c2n[nH]c(=O)o2)N2CC(C)c3cc(Cl)ccc3S2(=O)=O)c1C (stereo partly drawn) [Example 20, 5-((1S)-1-(6-chloro-4-methyl-1,1-dioxido-3,4-dihydro-2H-benzo[e][1,2]thiazin-2-yl)-2-(6-fluoro-2,3-dimethylphenyl)propyl)-1,3,4-oxadiazol-2(3H)-one]
